# Measured values from PMC12022980, “Rational Design of PROTAC Linkers Featuring Ferrocene as a Molecular Hinge to Enable Dynamic Conformational Changes” (Journal of the American Chemical Society, 2025).
# Columns and labels:
# VHL = biological target: T1, VHL (Homo sapiens, UniProt P40337); test: NanoBRET VHL target engagement, permeabilised-cell mode; assay type: cell-based; conditions: HEK293 transfected with VHL-NanoLuc, tracer 0.5 μM
# T1 construct: host or cells: HEK293, transient transfection
# T1 sequence (P40337 whole entry): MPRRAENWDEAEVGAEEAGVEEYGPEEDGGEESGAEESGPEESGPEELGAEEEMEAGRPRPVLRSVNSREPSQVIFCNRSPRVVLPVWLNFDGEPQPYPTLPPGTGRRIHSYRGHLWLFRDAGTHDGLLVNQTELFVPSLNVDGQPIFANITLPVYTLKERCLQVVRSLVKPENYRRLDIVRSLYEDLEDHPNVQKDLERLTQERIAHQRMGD
# Description: To this end, we assessed the PROTAC cellular permeability by evaluating VHL target engagement using the Promega NanoBRET TE Intracellular E3 Ligase.[62] Current PROTAC permeability assays use artificial systems like PAMPA and Caco-2, designed for small molecules but not always effective for PROTACs due to their low permeability, high molecular weight and assay caveats (i.e., unspecific binding and low recovery).[63],[64] The NanoBRET assay is a high-throughput method validated for measuring E3 ligase engagement in live and permeabilised cells. The assay allows to rank PROTAC intracellular availability through competitive probe displacement and offers a simple workflow for prioritising compounds based on properties associated with permeability. […] Specifically, in the live-cell mode, the assay measures the apparent cellular affinity, where the plasma membrane is intact and can impede the compound’s access to its target. In the permeabilised-cell mode, the barrier posed by the plasma membrane is removed and the intrinsic affinity of the compound for target is measured. […] The ratio of potencies between live-cell and permeabilised-cell modes, referred to as the relative-binding affinity (RBA) value increases as intracellular availability decreases and is thus a metric for assessing a PROTAC̀s cellular availability. […]
# [1] = LogD7.4 shake flask (octanol/phosphate buffer); assay type: physicochemical; conditions: octanol/potassium phosphate buffer, pH 7.4
# Description: The modulation of lipophilicity could play a critical role in optimizing PROTACs. We thus utilized traditionally measured LogD values from shake flask experiments alongside chromatographically assessed ChromLogD values.[72] […] By incorporating ferrocene, permeability may be improved due to the feature of promoting IMHB-mediated compact conformations, while also balancing the lipophilicity of the polar ligand/PEG linkers. However, while sufficient lipophilicity is required for passive uptake over the cell membrane, it may also drive poor aqueous solubility.[73]
# For the permeabilised-cell assay, 10 µL of digitonin was added, and plates were incubated in darkness for 5 minutes to allow permeabilisation. In each well 10 µL of the 10x PROTAC and vehicle control dilutions were dispensed. A 100x NanoBRET tracer solution (50 µM for VHL permeabilised-cell assay) was prepared with 100% DMSO, then diluted to a 20x solution with tracer dilution buffer. A 5 µL volume of tracer was dispensed into each well at a final concentration of 0.5 µM, and the plate was mixed at 300 RPM for 15 seconds. Finally, 50 µL of a 3x substrate solution (8.8 µL NanoBRET Nano-Glo substrate and 3,500 µL Opti-MEM) was added, and plates were incubated for 1 minute at room temperature before reading on a GloMax Discover as […]
# HiBiT Lytic Assay with Zosuquidar Co-treatment […]
# Luminescence was measured using the GloMax® Multiplex Luminescence and Fluorescence Protocol for 96-well plates. The luminescence signal for each well was normalised to the fluorescence signal and further normalised to the mean values from iPrOH-treated controls, then expressed as a ratio relative to the vehicle control. Curve fitting and DC50 values were determined in GraphPad Prism v.10.0.3 using nonlinear regression with a three-parameter logistic model to calculate DC50 values. […]
# of 1 mL/min and a column temperature of 40 °C. […] Data were analysed with Shimadzu Open Solution Data Browser to obtain the RTs of the peak for each individual compound and standards. […]
# ChromLogD values for the compounds were then calculated based on the regression curve. […]
# [2] = Mouse liver microsome stability; assay type: in vitro ADME; conditions: liver microsomes; for CLint scaled at 1 µM: pH 7.4; for half-life at 1 µM: pH 7.4, read-out: stability T1/2 in mouse microsome
# Experimental: Mouse Liver Microsome Stability
# Testing compound (1.5 μL) or reference compound (500 μM in 5% iPrOH and 95% acetonitrile) was mixed with 18.75 μL of 20 mg/mL liver microsome (Corning) and 479.75 μL of potassium phosphate buffer (0.1 M potassium phosphate buffer, 1 mM EDTA, pH 7.4). The reaction was started by mixing 30 μL of the above mixture (prewarmed to 37 °C) with 15 μL of 6 mM NADPH stock solution (prewarmed to 37 °C). After incubating for 5, 15, 30, or 45 min, 135 μL of acetonitrile containing internal standard was added to stop the reaction. For 0 min, the compound and microsome mixture were mixed with acetonitrile first before adding NADPH. After quenching, the reaction mixture was centrifuged, and the supernatant was taken and diluted for LC-MS
Compound,IC50 (VHL) [nM],logD [1],CLint scaled at 1 µM [2] [mL/min/kg],half-life at 1 µM [2] [min]
Cc1ncsc1-c1ccc(CNC(=O)[C@@H]2C[C@@H](O)CN2C(=O)[C@@H](NC(=O)CCCCCOCCOCCCCCC(=O)Nc2cccc3c2C(=O)N(C2CCC(=O)NC2=O)C3=O)C(C)(C)C)cc1 (some centres unmarked) [14a],300,3.3,5090,1.1
Cc1ncsc1-c1ccc(CNC(=O)[C@@H]2C[C@@H](O)CN2C(=O)[C@@H](NC(=O)COCCOCCOCCOCCOCCOCC(=O)N[C@H](C(=O)N2C[C@H](O)C[C@H]2C(=O)NCc2ccc(-c3scnc3C)cc2)C(C)(C)C)C(C)(C)C)cc1 [CM11],300,2.9,212,25.8
